Measured values: patent publication US7169786B2, “Isoxazoline derivatives as anti-depressants” (priority 2001, dated 2007)

What was measured:
[1] = biological target: T1, hα2A receptor (Homo sapiens, UniProt P08913); test: Radioligand binding experiment for hα2A receptor ([3H]-raulwolscine); conditions: membranes of CHO cells expressing human α2A receptor, [3H]raulwolscine 1 nM; for IC50: read-out: hα2A pIC50 (converted)
T1 construct: expressed in transfected cells
T1 sequence (P08913 1-465): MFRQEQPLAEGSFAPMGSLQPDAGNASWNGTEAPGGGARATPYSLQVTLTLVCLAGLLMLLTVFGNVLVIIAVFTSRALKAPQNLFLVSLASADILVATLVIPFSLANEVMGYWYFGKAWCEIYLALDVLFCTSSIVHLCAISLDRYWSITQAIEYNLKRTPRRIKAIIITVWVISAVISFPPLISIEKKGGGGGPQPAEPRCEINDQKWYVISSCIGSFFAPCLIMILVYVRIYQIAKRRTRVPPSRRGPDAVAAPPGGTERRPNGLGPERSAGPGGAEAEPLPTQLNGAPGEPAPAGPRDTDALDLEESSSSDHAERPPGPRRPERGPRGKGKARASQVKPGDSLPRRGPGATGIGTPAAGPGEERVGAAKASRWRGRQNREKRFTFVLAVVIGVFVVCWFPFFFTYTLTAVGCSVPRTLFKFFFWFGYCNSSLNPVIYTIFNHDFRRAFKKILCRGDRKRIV
Protocol: The interaction of the compounds of Formula (I) with hα2-receptors and h5-HT-transporters was assessed in in vitro radioligand binding experiments. In general, a low concentration of a radioligand with a high binding affinity for a particular receptor or transporter is incubated with a sample of a tissue preparation enriched in a particular receptor or transporter or with a preparation of cells expressing cloned human receptors in a buffered medium. During the incubation, the radioligand binds to the receptor or transporter. When equilibrium of binding is reached, the receptor bound radioactivity is separated from the non-bound radioactivity, and the receptor- or transporter-bound activity is counted. The interaction of the test compounds with the receptor is assessed in competition binding experiments. Various concentrations of the test compound are added to the incubation mixture containing the receptor- or transporter preparation and the radioligand. The test compound in proportion to its binding affinity and its concentration inhibits binding of the radioligand. The radioligand used for hα2A, hα2B and hα2C receptor binding was [^3H]-raulwolscine and for the h5-HT transporter was [^3H]paroxetine.
CHO cells, stabile transfected with human adrenergic-α2A-, -α2B or α2C receptor cDNA, were cultured in Dulbecco's Modified Eagle's Medium (DMEM)/Nutrient mixture Ham's F12 (ratio 1:1)(Gibco, Gent-Belgium) supplemented with 10% heat inactivated fetal calf serum (Life Technologies, Merelbeke-Belgium) and antibiotics (100 IU/ml penicillin G, 100 μg/ml streptomycin sulphate, 110 μg/ml pyruvic acid and 100 μg/ml L-glutamine). One day before collection, cells were induced with 5 mM sodiumbutyrate. Upon 80–90% of confluence, cells were scraped in phosphate buffered saline without Ca^2+ and Mg^2+ and collected by centrifugation at 1500×g for 10 min. The cells were homogenised in Tris-HCl 50 mM using an Ultraturrax homogenizer and centrifuged for 10 min at 23,500×g. The pellet was washed once by resuspension and rehomogenization and the final pellet was resuspended in Tris-HCl, divided in 1 ml aliquots and stored at −70° C.
Membranes were thawed and re-homogenized in incubation buffer (glycylglycine 25 mM, pH 8.0). […] Filters were rinsed extensively with ice-cold rinsing buffer (Tris-HCl 50 mM pH 7.4). Filter-bound radioactivity was determined by scintillation counting in a Topcount (Packard, Meriden, Conn.) and results were expressed as counts per minute (cpm). Non-specific binding was determined in the presence of 1 μM oxymetazoline for hα2A- and hα2B receptors and 1 μM spiroxatrine for hα2C receptors.
Data from assays in the presence of compound were calculated as a percentage of total binding measured in the absence of test compound. Inhibition curves, plotting percent of total binding versus the log value of the concentration of the test compound, were automatically generated, and sigmoidal inhibition curves were fitted using non-linear regression. The pIC50 values of test compounds were derived from individual curves.

[2] = biological target: T2, hα2B receptor (Homo sapiens, UniProt P18089); test: Radioligand binding experiment for hα2B receptor ([3H]-raulwolscine); conditions: membranes of CHO cells expressing human α2B receptor, [3H]raulwolscine 1 nM; for IC50: read-out: hα2B pIC50 (converted)
T2 construct: expressed in transfected cells
T2 sequence (P18089 1-450): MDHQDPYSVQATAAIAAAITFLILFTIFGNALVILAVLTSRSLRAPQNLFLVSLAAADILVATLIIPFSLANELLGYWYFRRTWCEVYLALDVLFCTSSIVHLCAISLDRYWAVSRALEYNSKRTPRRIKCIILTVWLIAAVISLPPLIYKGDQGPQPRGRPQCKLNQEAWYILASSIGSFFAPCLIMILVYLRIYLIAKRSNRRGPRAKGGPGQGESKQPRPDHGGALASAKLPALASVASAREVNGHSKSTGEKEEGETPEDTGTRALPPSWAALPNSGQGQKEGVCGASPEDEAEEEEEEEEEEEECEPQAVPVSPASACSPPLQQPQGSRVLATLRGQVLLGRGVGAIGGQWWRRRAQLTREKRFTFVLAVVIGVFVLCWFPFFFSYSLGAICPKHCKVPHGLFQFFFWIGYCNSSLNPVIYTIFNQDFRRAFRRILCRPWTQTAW
How it was run: (§1)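 Competition binding with [3H]-rauwolscine on membranes from CHO cells stably expressing human α2A, α2B or α2C receptors (sodium butyrate-induced), in 25 mM glycylglycine pH 8.0; filtration and scintillation counting.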

[3] = biological target: T3, hα2C receptor (Homo sapiens, UniProt P18825); test: Radioligand binding experiment for hα2C receptor ([3H]-raulwolscine); conditions: membranes of CHO cells expressing human α2C receptor, [3H]raulwolscine 1 nM; for IC50: read-out: hα2C pIC50 (converted)
T3 construct: expressed in transfected cells
T3 sequence (P18825 1-462): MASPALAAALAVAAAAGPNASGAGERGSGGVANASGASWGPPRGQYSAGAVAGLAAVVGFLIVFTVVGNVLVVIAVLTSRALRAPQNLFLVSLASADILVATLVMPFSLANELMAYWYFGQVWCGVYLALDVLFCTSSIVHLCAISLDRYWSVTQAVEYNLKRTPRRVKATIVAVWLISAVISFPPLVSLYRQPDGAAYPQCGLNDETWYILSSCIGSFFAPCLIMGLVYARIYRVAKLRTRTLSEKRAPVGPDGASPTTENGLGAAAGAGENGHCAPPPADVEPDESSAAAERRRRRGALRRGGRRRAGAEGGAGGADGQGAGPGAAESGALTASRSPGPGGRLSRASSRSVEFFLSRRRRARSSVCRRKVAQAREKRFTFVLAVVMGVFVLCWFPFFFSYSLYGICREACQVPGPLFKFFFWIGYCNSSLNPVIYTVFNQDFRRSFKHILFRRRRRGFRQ
How it was run: as §1

[4] = biological target: T4, h5-HT transporter (Homo sapiens, UniProt P31645); test: Radioligand binding experiment for 5-HT transporter ([3H]paroxetine, human platelet membranes); conditions: human platelet membranes, [3H]paroxetine 0.5 nM; for IC50: read-out: 5HTT pIC50 (converted)
T4 construct: Human platelet membranes (Oceanix Biosciences Corporation, Hanover, Md., USA) were thawed; tissue Oceanix Biosciences Corporation, Hanover, Md., USA; host or cells: human platelet membranes
How it was run: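 Competition binding of [^3H]paroxetine to human platelet membranes in Tris-HCl 50 mM, 120 mM NaCl, 5 mM KCl; filter-bound radioactivity counted.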

T4 sequence (P31645 whole entry): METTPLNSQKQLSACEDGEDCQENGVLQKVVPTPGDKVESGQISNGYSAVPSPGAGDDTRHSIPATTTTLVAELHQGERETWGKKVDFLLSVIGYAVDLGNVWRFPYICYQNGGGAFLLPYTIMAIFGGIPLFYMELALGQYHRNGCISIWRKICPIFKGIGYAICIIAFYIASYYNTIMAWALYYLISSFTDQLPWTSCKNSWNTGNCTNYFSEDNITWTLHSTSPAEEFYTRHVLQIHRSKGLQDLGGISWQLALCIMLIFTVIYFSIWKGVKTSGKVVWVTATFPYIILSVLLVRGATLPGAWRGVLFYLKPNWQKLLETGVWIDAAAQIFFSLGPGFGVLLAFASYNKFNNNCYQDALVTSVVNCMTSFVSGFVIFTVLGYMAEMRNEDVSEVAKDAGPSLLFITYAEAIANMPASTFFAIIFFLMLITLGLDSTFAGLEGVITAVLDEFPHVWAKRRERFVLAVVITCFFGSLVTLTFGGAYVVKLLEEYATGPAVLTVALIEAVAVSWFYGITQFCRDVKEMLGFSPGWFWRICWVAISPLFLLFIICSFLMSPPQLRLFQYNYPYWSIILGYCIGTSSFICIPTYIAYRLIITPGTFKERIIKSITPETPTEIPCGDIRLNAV

Row | IC50 [1] [nM] | IC50 [2] [nM] | IC50 [3] [nM] | IC50 [4] [nM] | Compound | hα2A pIC50 [1] | hα2B pIC50 [2] | hα2C pIC50 [3] | 5HTT pIC50 [4]
1 | 2.45 | 7.94 | 17 | 107 | c1ccc2cc(CN3CCN(CC4ON=C5c6cc7c(cc6OCC54)OCO7)CC3)ccc2c1 (stereo not drawn) [Compound 277] |  |  |  | 
2 | 145 | 77.6 | 29.5 | 12.6 | COc1cc2c(cc1OC)C1=NOC(CN3CCN(C/C=C/c4ccc(F)cc4F)CC3)C1CO2 (single isomer, unassigned) [Compound 185] |  |  |  | 
3 | 57.5 | 70.8 | 43.7 | 69.2 | COc1cc2c(cc1OC)C1=NOC(CN3CCN(Cc4ccc5ccccc5n4)CC3)C1CO2 (stereo not drawn) [Compound 45] |  |  |  | 
4 | 4.07 | 6.03 | 1.55 | 18.2 | COc1cc2c(cc1OC)C1=NOC(CN3CCN(CC(C)Oc4cccc(F)c4)CC3)C1CO2 (stereo not drawn) [Compound 27] |  |  |  | 
5 |  |  |  |  | CN1CC2C(=NOC2CN2CCN(Cc3ccc4ccccc4c3)CC2)c2ccccc21 (stereo not drawn) [Compound 266] | 7.84 | 7.80 | 7.45 | 8.88
6 | 603 | 575 | 363 | 257 | COc1cc2c(cc1OC)C1=NOC(CN3CCN(Cc4cccc(F)c4)CC3)C1CO2 (stereo not drawn) [Compound 285] |  |  |  | 
7 | 102 | 64.6 | 138 | 15.8 | COc1cc2c(cc1OC)C1=NOC(CN3CCN(CC=Cc4ccc(F)cc4)CC3)C1CO2 (stereo not drawn) [Compound 43] |  |  |  | 
8 | 182 | 132 | 1260 | 457 | C(=Cc1ccccc1)CN1CCN(CC2ON=C3c4ccccc4CCC32)CC1 (stereo not drawn) [Comp 218] |  |  |  | 
9 | 13.2 | 18.2 | 5.13 | 5.13 | COc1cc2c(cc1OC)C1=NOC(CN3CCN(CC4=Cc5ccccc5OC4)CC3)C1CO2 (stereo not drawn) [Compound 65] |  |  |  | 
10 | 19.1 | 38 | 36.3 | 41.7 | COc1cc2c(cc1OC)C1=NOC(CN3CCN(Cc4cc5ccccc5o4)CC3)C1CO2 (stereo not drawn) [Compound 54] |  |  |  | 
11 | 347 | 933 | 631 | 724 | COc1cc2c(cc1OC)C1=NOC(CN3CCN(Cc4ccsc4)CC3)C1CO2 (stereo not drawn) [Compound 300] |  |  |  | 
12 | 1.62 | 18.6 | 1.05 | 1.2 | COc1cc2c(cc1OC)C1=NOC(CN3CCN(CC4=Cc5ccccc5CC4)CC3)C1CO2 (stereo not drawn) [Compound 21] |  |  |  | 
13 | 56.2 | 141 | 34.7 | 13.5 | COc1cc2c(cc1OC)C1=NOC(CN3CCN(CC=Cc4ccc5c(c4)CCO5)CC3)C1CO2 (stereo not drawn) [Compound 125] |  |  |  | 
14 |  |  |  |  | COc1cc2c(cc1OC)C1=NOC(CN(C)C3CCN(Cc4ccc5ccccc5c4)CC3)C1CO2 (racemic) [Compound 281] | 7.05 | 7.19 | 7.31 | 7.25
15 | 11.2 | 6.92 | 6.46 | 8.71 | COc1cc2c(cc1OC)C1=NOC(CN3CCN(C/C=C/c4ccsc4)CC3)C1CO2 (single isomer, unassigned) [Compound 314] |  |  |  | 
16 |  |  |  |  | C(=Cc1ccccc1)CN1CCN(CC2ON=C3c4cc5c(cc4OCC32)OCC5)CC1 (racemic) [Compound 279] | 8.45 | 8.03 | 8.24 | 7.45
17 | 69.2 | 112 | 34.7 | 30.2 | COc1cc2c(cc1OC)C1=NOC(CN3CCN(CC=Cc4cccc(C)c4)CC3)C1CO2 (stereo not drawn) [Compound 110] |  |  |  | 
18 | 10.5 | 174 | 120 | 407 | COc1cc2c(cc1OC)C1=NOC(CN3CCN(C(C)/C=C/c4ccccc4)CC3)C1CO2 (single isomer, unassigned) [Compound 316] |  |  |  | 
19 | 3.89 | 13.8 | 42.7 | 2.95 | c1ccc2cc(CN3CCN(CC4ON=C5c6ccc(OC7CCOC7)cc6OCC54)CC3)ccc2c1 (stereo not drawn) [Compound 271] |  |  |  | 
20 | 46.8 | 178 | 66.1 | 6.92 | COc1cc2c(cc1OC)C1=NOC(CN3CCN(Cc4ccc5cc(C)ccc5c4)CC3)C1CO2 (stereo not drawn) [Compound 72] |  |  |  | 
21 | 3.24 | 12.6 | 2.82 | 5.01 | COCCOCOc1ccc2c(c1)OCC1C2=NOC1CN1CCN(Cc2ccc3ccccc3c2)CC1 (stereo not drawn) [Compound 267] |  |  |  | 
22 | 7.76 | 20.9 | 30.9 | 13.2 | CC(=O)Oc1ccc2c(c1)OCC1C2=NOC1CN1CCN(Cc2ccc3ccccc3c2)CC1 (stereo not drawn) [Compound 273] |  |  |  | 
23 |  |  |  |  | COc1cc2c(cc1OC)C1=NOC(CN(C=O)C3CCN(Cc4ccc5ccccc5c4)CC3)C1CO2 (racemic) [Compound 282] | 7.66 | 7.26 | 7.64 | 8.06
24 |  |  |  |  | COc1cc2c(cc1OC(C)=O)C1=NOC(CN3CCN(CC(C)=Cc4ccccc4)CC3)C1CO2 (stereo not drawn) [Compound 257] | 7.52 | 8.37 | 8.65 | 7.46
